The values that follow come from patent US11389413B2, “Methods of preparing compositions containing thymoquinone” (Jina Pharmaceuticals, Inc., priority 2017, dated 2022).

The test system of data set [1] is streptozotocin (STZ) induced diabetic mice. As to the kind of experiment: Hypoglycemic activity in streptozotocin-induced diabetic mice (blood glucose, water intake). In kind it is in vivo, Male ICR (CD-1) mice. The method, then:
Induction of Experimental Diabetes in Mice: Male ICR (CD-1) mice (8-9 weeks of age) were fasted for 6 hrs. before streptozotocin (STZ) administration. Fresh STZ solution at 15 mg/mL was prepared by dissolving powder STZ into 1 mM citrate buffer (pH 4.5). Mice received i.p. STZ solution of 150 mg/kg. Fasting blood glucose level was measured from tail vein blood. Mice with blood glucose levels of 250 mg/dL or higher were considered to be diabetic. Blood samples with “HI” (>600 mg/dL) reading were diluted with same amount of normal saline before measuring again.
A total of 20 diabetic mice were randomized based on the blood glucose levels into two study groups, group A: Metformin (Met)-treated, and group B: Thymoquinone/Metformin (TQ/Met)-treated groups.
There were 10 animals in each group. Mice in group A received oral administration of Met at a dose of 200 mg/kg every day. Mice in group B received oral administration of Met+TQ (200 mg/kg+50 mg/kg) every day using a 20-Ga stainless feeding needle. Fasting blood glucose level was measured weekly.
Water intake was also estimated by weighing each water bottle before and after a period of 24 hrs. The volume of water consumed was estimated from the weight of water consumed. The volume of water consumed by each cage was normalized with body weight and presented as mL/30 g BW over 24 hrs.

For data set [2] the following is noted: cited from earlier work.
Data set [3] has as its system Lipopolysaccaride/D-Galactosamine (LPS/GaIN) induced acute liver failure. As to the kind of experiment: LPS/GalN induced acute liver failure, survival. Particulars: TQ 200 mg/kg oral gavage 30 min after LPS/GalN injection; all control mice died in over 7 hrs. In kind it is in vivo, Male C57BL6 mice. The method, then:
A total of 13 male C57BL6 mice (5-6 weeks of age) were injected intraperitoneally with D-galactosamine (GaIN, Carbosynth) (800 mg/kg) and lipopolysaccharide (LPS from E coli 0127:B8, Sigma-Aldrich) (10 μg/kg) dissolved in normal saline. 30 min after LPS/GalN injection, 6 mice in the control group received purified water (20 mL/kg) and 7 mice received a TQ at a dose of 200 mg/kg, via oral gavage. Survival was monitored for 48 hrs. All mice in the control group died in over 7 hrs. period following the injection of LPS/GalN, while 4 out of 7 mice treated with TQ survived up to 48 hrs. (see FIG. 2).

For data set [4] the following is noted: cited from earlier work. This is another data set of the same source.

For `CN(C)C(=N)N=C(N)N` [Met, Metformin], in data set [1] (fasting blood glucose, STZ diabetic mice, before treatment, Mean ± SD, n = 10), the “Blood Glucose Level, Pre-Treat” value was found to be 443 ± 102 mg/dL. For the same molecule, in data set [1] (fasting blood glucose, oral daily dosing, 1 week, Mean ± SD, n = 10), the “Blood Glucose Level, 1-Week Treat” value came to 433 ± 115 mg/dL. For the same molecule, the “Blood Glucose Level, 2-Week Treat” value in data set [1] (fasting blood glucose, oral daily dosing, 2 weeks, Mean ± SD, n = 10) is recorded as 290 ± 84 mg/dL. Further, in data set [1] (fasting blood glucose, oral daily dosing, 3 weeks, Mean ± SD, n = 10), the “Blood Glucose Level, 3-Week Treat” value worked out at 299 ± 96 mg/dL. Further, the “decrease in blood glucose level” value in data set [1] (over 3-week period, oral daily, Met 200 mg/kg, Met+TQ 200 mg/kg+50 mg/kg) amounted to 32.5%.

For the molecule `CC1=CC(=O)C(C(C)C)=CC1=O` [TQ, 2-Isopropyl-5-methyl-1,4-benzoquinone], the “solubility in aqueous buffers” value in data set [2] is “approx. 500 μg/mL”. Further, the “mice surviving up to 48 hrs” value in data set [3] was 4 out of 7. Also, in data set [4], the “stability in aqueous solutions” value was “highly unstable”.
